# System: homogenates of cultured AVSMC
# Test: Carboxypeptidase activity against ET-1 in homogenates of cultured AVSMC
# Format: biochemical, mouse
# Settings: 50 µM ET-1
# Text: Figure 1 Scpep1 has carboxypeptidase activity against ET-1. A. Carboxypeptidase activity against ET-1 in homogenates of cultured AVSMC from WT, Scpep1 ^−/−, CathA^S190A and Scpep1 ^−/− /CathA^S190A mice as well as from the cells of Scpep1 ^−/− /CathA^S190A mice transiently transfected with pCMV-GFP and pCMV-Scpep1 plasmids. AVSMC after the passage 3 were transfected or not with Scpep1-RGS-His-Tag and pEGFP-C1 plasmids. Forty-eight hours after transfection confluent cells were harvested, homogenized and tested for carboxypeptidase activity using 50 µM ET-1 as a substrate. Data are expressed as means (±S.D.) of 3 independent experiments performed with different cell cultures. * p<0.05 and ** p<0.01 in two-tailed unpaired t-test. B. Carboxypeptidase activity against ET-1 in homogenates of cultured AVSMC from WT mice transfected with Scpep1 and CathA shRNA. AVSMC after the passage 3 were transfected with pRFP-C-RS vectors expressing shRNA for mouse CathA and Scpep1 or non-effective 29-mer scrambled shRNA as indicated. Seventy-two hours after transfection the cells were harvested, and those expressing plasmids enriched by cell-sorting, homogenized and tested for carboxypeptidase activity using 50 µM ET-1 as a substrate. […] C. Carboxypeptidase activity against ET-1 of purified recombinant Scpep1. Scpep1 carrying a His6 tag at the C-terminus was expressed in stably transfected HT1080 cells and purified by affinity chromatography on Ni-NTA resin followed by anion-exchange chromatography as described. Carboxypeptidase activity was assayed with 50 µM ET-1 as a substrate and 0.4–0.8 µg of the purified enzyme in the reaction mixture in 50 mM sodium phosphate/50 mM sodium acetate buffer at pH 5.5, 6.5 and 7.5. Bars show mean values (±S.D.) of 3 independent experiments. […] The amino acid analysis of the reaction mixture determined that Scpep1 cleaves the C-terminal amino acid (Trp21) from ET-1 (not shown). […]
# Carboxypeptidase activity in cultured AVSMC was measured against 50 µM ET-1 as previously described using the method measuring the liberation rate of the C-terminal amino acid of the peptide. […]
substance,measurement,setting,value
endothelin-1 [ET-1],carboxypeptidase activity against ET-1,"AVSMC of CathA^S190A mice, sodium acetate buffer pH 5.4, 30–180 min at 37°C, 3 independent experiments",~10%
same,carboxypeptidase activity against ET-1,"CathA^S190A/Scpep1^−/− mice, pH 5.4, 37°C",~6%
same,carboxypeptidase activity against ET-1,"Scpep1^−/− mice, relative to WT, pH 5.4, 37°C",~70%

# Source: article PMC3937211, “Serine Carboxypeptidase SCPEP1 and Cathepsin A Play Complementary Roles in Regulation of Vasoconstriction via Inactivation of Endothelin-1” (PLoS Genetics, 2014)
